Literature values in patent publication US20220225611A1, “NON-NATURAL INSECT PHEROMONE BLEND COMPOSITIONS” (Provivi, Inc., priority 2019, published 2022).

Tests used:
[1] = tested on: C. suppressalis; conditions: Chen et al. (2018)
[2] = tested on: S. incertulas; conditions: Cork & Souza (1996)

Structure (SMILES) | effect on attractiveness of a pheromone mixture [1] | effect of presence in a pheromone blend on mating disruption [2]
CCCCCCCC/C=C\CCCCCCCC=O [Z9-18Ald, (Z)-9-Octadecenal] | reduces the attractiveness | 
CCCC/C=C\CCCCCCCCCCCC=O [Z13-18Ald, (Z)-13-Octadecenal] |  | not be produce increased mating disruption
